Common to all, as to assay type: cell-based
Test [1] concerns EBC-1 lung cancer cell line. Briefly: EBC-1 cell proliferation, CellTiter-Glo assay. The following applies: Homo sapiens, 120 h; Ebc-1 cell viability, CTG assay, 5 days of treatment; read-out: CTG 5 day Ebc1 GI50. An outline of the steps: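 EBC-1 cells seeded at 1000 per well overnight, then exposed to 10-point dilutions (0.508 nM–10 μM final) for 5 days at 37 °C, in triplicate. ATP luminescence by CellTiter-Glo, normalised to untreated wells; GI50 from four-parameter logistic fit, runs valid only with at least one doubling.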
In general terms: In ATP-based viability assays light output follows the ATP content of the culture.

The target of another test is T1, Bcl-xL (Homo sapiens, UniProt Q07817).
T1 construct: Measured levels of Bcl-xL protein of HCT116 cells treated with the tested compounds; host or cells: HCT116
Briefly: HCT116 Bcl-xL degradation, capillary-based immunoassay (WES). Conditions: for DC50: HCT116, 24 h, 9-point serial dilution. An outline of the steps:
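HCT116 cells treated 24 h with compound at 10/100 nM and/or 9-point dilution (quadruplicates), then lysed. Bcl-xL measured by capillary WES immunoassay, normalized to cofilin and expressed as % of untreated cells. DC50 from four-parameter curve fit.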

The next test deals with MOLT-4 cells. As to the kind of experiment: MOLT-4 cell viability, CTG assay. Conditions: Homo sapiens, MOLT-4, 48 h. The essentials:
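Cells grown in RPMI 1640 with 10% FBS at 37° C, 5% CO2, then exposed to compounds for 48 h (11-point 5-fold dilution, triplicates). ATP measured by CellTiter-Glo luminescence; IC50 from four-parameter fit versus control, mean of ≥2 independent experiments.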

The next test has as its target T2, HiBiT-tagged BCL-xL (Homo sapiens, UniProt Q07817).
T2 construct: expressed in transfected cells; host or cells: NCI-H1650 (ATCC No. CRL-5883), engineered HiBiT cell line
Briefly: NCI-H1650 BCL-xL protein levels, Nano-Glo HiBiT Lytic Detection. Conditions: NCI-H1650 expressing HiBiT-tagged BCL-xL, overnight incubation, read-out: Bcl-xl HIBIT NCIH1650 DC50. The essentials: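 NCI-H1650 cells expressing HiBiT-tagged BCL-xL (5000/well) were treated overnight at 37° C with 10 concentrations, final 0.508 nM-10 μM, in triplicate. Remaining BCL-xL measured by Nano-Glo HiBiT lytic luminescence, normalized to untreated cells; 50% values by four-parameter logistic fit.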
(In general: HiBiT is a short tag that completes a luciferase, so light tracks the accessible tagged protein.)

By GI50 is commonly meant the concentration that inhibits growth by half. As usually defined, the IC50 is the concentration at which inhibition is half-maximal. A high value points to lower potency. What is called remaining activity is the signal under treatment as a percentage of the control signal.

T2 sequence (Q07817 whole entry): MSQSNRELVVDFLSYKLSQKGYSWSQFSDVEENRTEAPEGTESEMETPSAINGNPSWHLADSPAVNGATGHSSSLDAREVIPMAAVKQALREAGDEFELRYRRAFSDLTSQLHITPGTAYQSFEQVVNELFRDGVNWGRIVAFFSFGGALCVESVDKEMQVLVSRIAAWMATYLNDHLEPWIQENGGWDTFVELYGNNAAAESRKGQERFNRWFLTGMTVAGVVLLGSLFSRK
T1 sequence (Q07817 whole entry): as above

Regarding `Cc1ncsc1-c1ccc([C@H](C)NC(=O)C2C[C@@H](O)CN2C(=O)C(NC(=O)COCCOCCOCCOCCN(C)CCOC23CC4(C)CC(C)(CC(Cn5ncc(-c6ccc(N7CCCc8c7nnc(Nc7nc9ccccc9s7)c8C)nc6C(=O)O)c5C)(C4)C2)C3)C(C)(C)C)cc1` (stereo in doubt) [Example 87, 6-[3-(1,3-benzothiazol-2-ylamino)-4-methyl-6,7-dihydro-5H-pyrido[2,3-c]pyridazin-8-yl]-3-[1-[[3-[2-[2-[2-[2-[2-[2-[[(1S)-1-[(2S,4R)-4-hydroxy-2-[[(1S)-1-[4-(4-methylthiazol-5-yl)phenyl]ethyl]carbamoyl]pyrrolidine-1-carbonyl]-2,2-dimethyl-propyl]amino]-2-oxo-ethoxy]ethoxy]ethoxy]ethoxy]ethyl-methyl-amino]ethoxy]-5,7-dimethyl-1-adamantyl]methyl]-5-methyl-pyrazol-4-yl]pyridine-2-carboxylic acid], in test [1], the GI50 is 216 nM. Further, the DC50 at Bcl-xL was > 316 nM; on HiBiT-tagged BCL-xL, > 1670 nM. Besides, in the test with MOLT-4 cells, the IC50 worked out at 34.7 nM.

Regarding `Cc1ncsc1-c1ccc([C@H](C)NC(=O)[C@@H]2C[C@@H](O)CN2C(=O)[C@@H](NC(=O)CCCCCCCCCCNC(=O)c2nc(N3CCCc4c3nnc(Nc3nc5ccccc5s3)c4C)ccc2-c2cnn(CC34CC5(C)CC(C)(C3)CC(OCCN3CCCC3)(C5)C4)c2C)C(C)(C)C)cc1` [Example 125, 6-[3-(1,3-benzothiazol-2-ylamino)-4-methyl-6,7-dihydro-5H-pyrido[2,3-c]pyridazin-8-yl]-3-[1-[[3,5-dimethyl-7-(2-pyrrolidin-1-ylethoxy)-1-adamantyl]methyl]-5-methyl-pyrazol-4-yl]-N-[11-[[(1S)-1-[(2S,4R)-4-hydroxy-2-[[(1S)-1-[4-(4-methylthiazol-5-yl)phenyl]ethyl]carbamoyl]pyrrolidine-1-carbonyl]-2,2-dimethyl-propyl]amino]-11-oxo-undecyl]pyridine-2-carboxamide], the GI50 in test [1] was found to be 81 nM. Also, the DC50 on Bcl-xL was found to be 0.487 nM; at HiBiT-tagged BCL-xL, 1 nM. Also, inhibition in the test on MOLT-4 cells was half-maximal at 9.34 nM (IC50).

Consider `Cc1ncsc1-c1ccc([C@H](C)NC(=O)[C@@H]2C[C@@H](O)CN2C(=O)[C@@H](NC(=O)CCCCCCCCCN(C)CCOC23CC4(C)CC(C)(CC(Cn5ncc(-c6ccc(N7CCCc8c7nnc(Nc7nc9ccccc9s7)c8C)nc6C(=O)O)c5C)(C4)C2)C3)C(C)(C)C)cc1` [Example 133, 6-[3-(1,3-benzothiazol-2-ylamino)-4-methyl-6,7-dihydro-5H-pyrido[2,3-c]pyridazin-8-yl]-3-[1-[[3-[2-[[10-[[(1S)-1-[(2S,4R)-4-hydroxy-2-[[(1S)-1-[4-(4-methylthiazol-5-yl)phenyl]ethyl]carbamoyl]pyrrolidine-1-carbonyl]-2,2-dimethyl-propyl]amino]-10-oxo-decyl]-methyl-amino]ethoxy]-5,7-dimethyl-1-adamantyl]methyl]-5-methyl-pyrazol-4-yl]pyridine-2-carboxylic acid], for which the concentration for 50% growth inhibition (GI50) in test [1] stood at 4 nM. On Bcl-xL (HCT-116, HCT116, 10 nM, 24 h, % of untreated cells), the remaining activity at 0.01 µM is 112%. In addition, the remaining activity at 0.1 µM on Bcl-xL (HCT-116, HCT116, 100 nM, 24 h, % of untreated cells) turned out to be 105%. The IC50 in the test with MOLT-4 cells was 10.2 nM. In addition, at HiBiT-tagged BCL-xL, the DC50 was > 1670 nM.

For the compound `Cc1cc(N(CCCCN(C)C(=O)CCCCCCCCCCC(=O)N[C@H](C(=O)N2C[C@H](O)C[C@H]2C(=O)N[C@@H](C)c2ccc(-c3scnc3C)cc2)C(C)(C)C)c2ccc(-c3cnn(CC45CC6(C)CC(C)(C4)CC(OCCN(C)C)(C6)C5)c3C)c(C(=O)O)n2)nnc1Nc1nc2ccccc2s1` [Example 112, 6-[[6-(1,3-benzothiazol-2-ylamino)-5-methyl-pyridazin-3-yl]-[4-[[12-[[(1S)-1-[(2S,4R)-4-hydroxy-2-[[(1S)-1-[4-(4-methylthiazol-5-yl)phenyl]ethyl]carbamoyl]pyrrolidine-1-carbonyl]-2,2-dimethyl-propyl]amino]-12-oxo-dodecanoyl]-methyl-amino]butyl]amino]-3-[1-[[3-[2-(dimethylamino)ethoxy]-5,7-dimethyl-1-adamantyl]methyl]-5-methyl-pyrazol-4-yl]pyridine-2-carboxylic acid], the GI50 in test [1] is 437 nM. In addition, the values for the DC50 on Bcl-xL and at HiBiT-tagged BCL-xL were 0.495 nM and 0.5 nM, respectively. The IC50 with MOLT-4 cells turned out to be 15.7 nM.

As to `Cc1ncsc1-c1ccc(CNC(=O)[C@@H]2C[C@@H](O)CN2C(=O)[C@@H](NC(=O)C2(F)CC2)C(C)(C)SCCCCCCCCCCCCN(C)CCOC23CC4(C)CC(C)(CC(Cn5ncc(-c6ccc(N7CCCc8c7nnc(Nc7nc9ccccc9s7)c8C)nc6C(=O)O)c5C)(C4)C2)C3)cc1` [Example 79, 6-[3-(1,3-benzothiazol-2-ylamino)-4-methyl-6,7-dihydro-5H-pyrido[2,3-c]pyridazin-8-yl]-3-[1-[[3-[2-[12-[(2R)-2-[(1-fluorocyclopropanecarbonyl)amino]-3-[(2S,4R)-4-hydroxy-2-[[4-(4-methylthiazol-5-yl)phenyl]methylcarbamoyl]pyrrolidin-1-yl]-1,1-dimethyl-3-oxo-propyl]sulfanyldodecyl-methyl-amino]ethoxy]-5,7-dimethyl-1-adamantyl]methyl]-5-methyl-pyrazol-4-yl]pyridine-2-carboxylic acid], the GI50 in test [1] amounted to 66 nM. The results for the DC50 at Bcl-xL and on HiBiT-tagged BCL-xL were 0.399 nM and > 1670 nM, respectively. This compound yielded an IC50 in the test with MOLT-4 cells of 6.06 nM.

With `Cc1c(Nc2nc3ccccc3s2)nnc2c1CCCN2c1ccc(-c2cnn(CC34CC5(C)CC(C)(C3)CC(OCCN(C)CCCCCCCCCCCCCCCOc3ccc6c(c3)C(=O)N(C3CCC(=O)NC3=O)C6=O)(C5)C4)c2C)c(C(=O)O)n1` (stereo not drawn) [Example 119, 6-[3-(1,3-benzothiazol-2-ylamino)-4-methyl-6,7-dihydro-5H-pyrido[2,3-c]pyridazin-8-yl]-3-[1-[[3-[2-[15-[2-(2,6-dioxo-3-piperidyl)-1,3-dioxo-isoindolin-5-yl]oxypentadecyl-methyl-amino]ethoxy]-5,7-dimethyl-1-adamantyl]methyl]-5-methyl-pyrazol-4-yl]pyridine-2-carboxylic acid], the GI50 in test [1] was 69 nM. Also, the DC50 is 0.681 nM at Bcl-xL and > 1670 nM on HiBiT-tagged BCL-xL. In the test on MOLT-4 cells, the IC50 was determined as 4.78 nM.

For the compound `Cc1cc(N(CCCCN(C)C(=O)CCCCCCCCCCCC(=O)N[C@H](C(=O)N2C[C@H](O)C[C@H]2C(=O)N[C@@H](C)c2ccc(-c3scnc3C)cc2)C(C)(C)C)c2ccc(-c3cnn(C[C@]45C[C@]6(C)C[C@](C)(C4)C[C@@](OCCN(C)C)(C6)C5)c3C)c(C(=O)O)n2)nnc1Nc1nc2ccccc2s1` [Example 121, 6-[[6-(1,3-benzothiazol-2-ylamino)-5-methyl-pyridazin-3-yl]-[4-[[13-[[(1S)-1-[(2S,4R)-4-hydroxy-2-[[(1S)-1-[4-(4-methylthiazol-5-yl)phenyl]ethyl]carbamoyl]pyrrolidine-1-carbonyl]-2,2-dimethyl-propyl]amino]-13-oxo-tridecanoyl]-methyl-amino]butyl]amino]-3-[1-[[3-[2-(dimethylamino)ethoxy]-5,7-dimethyl-1-adamantyl]methyl]-5-methyl-pyrazol-4-yl]pyridine-2-carboxylic acid], the GI50 in test [1] is 190 nM. Further, the DC50 on Bcl-xL worked out at 2.57 nM; on HiBiT-tagged BCL-xL it was 1 nM. In the test on MOLT-4 cells, this compound gave an IC50 of 9.99 nM.

`Cc1ncsc1-c1ccc(CNC(=O)[C@@H]2C[C@@H](O)CN2C(=O)[C@@H](NC(=O)C2(F)CC2)C(C)(C)SCCCCCCCCCCCCCCN(C)CCOC23CC4(C)CC(C)(CC(Cn5ncc(-c6ccc(N7CCCc8c7nnc(Nc7nc9ccccc9s7)c8C)nc6C(=O)O)c5C)(C4)C2)C3)cc1` [Example 80, 6-[3-(1,3-benzothiazol-2-ylamino)-4-methyl-6,7-dihydro-5H-pyrido[2,3-c]pyridazin-8-yl]-3-[1-[[3-[2-[14-[(2R)-2-[(1-fluorocyclopropanecarbonyl)amino]-3-[(2S,4R)-4-hydroxy-2-[[4-(4-methylthiazol-5-yl)phenyl]methylcarbamoyl]pyrrolidin-1-yl]-1,1-dimethyl-3-oxo-propyl]sulfanyltetradecyl-methyl-amino]ethoxy]-5,7-dimethyl-1-adamantyl]methyl]-5-methyl-pyrazol-4-yl]pyridine-2-carboxylic acid]: the GI50 in test [1] was 92 nM. The DC50 at Bcl-xL was 3.57 nM; on HiBiT-tagged BCL-xL, > 1670 nM. Moreover, the midpoint of inhibition in the test on MOLT-4 cells, the IC50, lay at 6.11 nM.

These data come from patent publication US20240376094A2, “SELECTIVE BCL-XL PROTAC COMPOUNDS AND METHODS OF USE” (Les Laboratoires Servier, priority 2021, published 2024).
